Measured values from patent publication US20240425502A1, “BICYCLIC HETEROAROMATIC COMPOUNDS AND THEIR USE AS PEST CONTROL AGENTS” (PI INDUSTRIES LTD., priority 2021, published 2024).

Key:
Assay type in all cases: in vivo
Myzus persicae = Myzus persicae leaf dip test (capsicum leaves, third instar nymphs); details: foliar, 72 h after release, dead and moribund combined, compared to untreated control, read-out: percent mortality
Nilaparvata lugens = Nilaparvata lugens seedling dip test (paddy seedlings, third instar nymphs); details: 72 h after release, dead and moribund combined, compared to untreated control, read-out: percent mortality
Bemisia tabaci = Bemisia tabaci leaf dip test (brinjal leaves, whitefly adults); details: foliar, 72 h after release, dead and moribund combined, compared to untreated control, read-out: percent mortality
Method in brief: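 Brinjal leaves dipped 10 s in compound diluted in 0.01% Triton-X, dried, then exposed to freshly emerged whitefly adults at 25 °C and 70% RH. Dead plus moribund adults counted after 72 h; percent mortality calculated relative to untreated control.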

Measured: mortality at 300 ppm

O=c1c2cccn(Cc3cnc(Cl)nc3)c-2nc(=S)n1-c1ccc(Cl)cc1 [Compound 210, 3-(4-chlorophenyl)-8-((2-chloropyrimidin-5-yl)methyl)-2-thioxo-2,8-dihydropyrido[2,3-d]pyrimidin-4(3H)-one]
≥ 70%: all assays above

O=c1nc2n(Cc3cnc(Cl)nc3)cccc-2c(=O)n1-c1ccc(F)c(C(F)(F)F)c1 [Compound 213, 8-((2-chloropyrimidin-5-yl)methyl)-3-(4-fluoro-3-(trifluoromethyl)phenyl)pyrido[2,3-d]pyrimidine-2,4(3H,8H)-dione]
≥ 70%: all assays above

O=c1nc2n(Cc3cnc(Cl)nc3)cccc-2c(=O)n1-c1ccc(OCC(F)(F)F)cc1 [Compound 216, 8-((2-chloropyrimidin-5-yl)methyl)-3-(4-(2,2,2-trifluoroethoxy)phenyl)pyrido[2,3-d]pyrimidine-2,4(3H,8H)-dione]
≥ 70%: all assays above

O=c1nc2n(Cc3ccc(Cl)nc3)cccc-2c(=O)n1-c1ccc(OCC(F)(F)F)cc1 [Compound 223, 8-((6-chloropyridin-3-yl)methyl)-3-(4-(2,2,2-trifluoroethoxy)phenyl)pyrido[2,3-d]pyrimidine-2,4(3H,8H)-dione]
≥ 70%: all assays above

O=c1nc2n(Cc3cnc(Cl)nc3)cccc-2c(=O)n1-c1ccc(F)cc1Cl [Compound 225, 3-(2-chloro-4-fluorophenyl)-8-((2-chloropyrimidin-5-yl)methyl)pyrido[2,3-d]pyrimidine-2,4(3H,8H)-dione]
≥ 70%: all assays above

O=c1nc2n(Cc3cnc(Cl)nc3)cccc-2c(=O)n1-c1cccc(Br)c1 [Compound 231, 3-(3-bromophenyl)-8-((2-chloropyrimidin-5-yl)methyl)pyrido[2,3-d]pyrimidine-2,4(3H,8H)-dione]
≥ 70%: all assays above

O=c1nc2n(Cc3cnc(Cl)nc3)cccc-2c(=O)n1-c1ccc(F)c(Br)c1 [Compound 234, 3-(3-bromo-4-fluorophenyl)-8-((2-chloropyrimidin-5-yl)methyl)pyrido[2,3-d]pyrimidine-2,4(3H,8H)-dione]
≥ 70%: all assays above

O=c1nc2n(Cc3cnc(Cl)nc3)cccc-2c(=O)n1-c1ccc(Br)c(F)c1 [Compound 235, 3-(4-bromo-3-fluorophenyl)-8-((2-chloropyrimidin-5-yl)methyl)pyrido[2,3-d]pyrimidine-2,4(3H,8H)-dione]
≥ 70%: all assays above

O=c1nc2n(Cc3cnc(Cl)s3)cccc-2c(=O)n1-c1ccc(F)c(C(F)(F)F)c1 [Compound 242, 8-((2-chlorothiazol-5-yl)methyl)-3-(4-fluoro-3-(trifluoromethyl)phenyl)pyrido[2,3-d]pyrimidine-2,4(3H,8H)-dione]
≥ 70%: all assays above

O=c1nc2n(Cc3cnc(Cl)s3)cccc-2c(=O)n1-c1ccc(OCC(F)(F)F)cc1 [Compound 243, 8-((2-chlorothiazol-5-yl)methyl)-3-(4-(2,2,2-trifluoroethoxy)phenyl)pyrido[2,3-d]pyrimidine-2,4(3H,8H)-dione]
≥ 70%: all assays above

O=c1nc2n(Cc3cnc(Cl)nc3)cccc-2c(=O)n1-c1cc(F)cc(C(F)(F)F)c1 [Compound 244, 8-((2-chloropyrimidin-5-yl)methyl)-3-(3-fluoro-5-(trifluoromethyl)phenyl)pyrido[2,3-d]pyrimidine-2,4(3H,8H)-dione]
≥ 70%: all assays above

O=c1nc2n(Cc3ccc(Cl)nc3)cccc-2c(=O)n1-c1cccc(SC(F)(F)F)c1 [Compound 246, 8-((6-chloropyridin-3-yl)methyl)-3-(3-((trifluoromethyl)thio)phenyl)pyrido[2,3-d]pyrimidine-2,4(3H,8H)-dione]
≥ 70%: all assays above

O=c1nc2n(Cc3cnc(Cl)s3)cccc-2c(=O)n1-c1ccc2c(c1)OC(F)(F)O2 [Compound 247, 8-((2-chlorothiazol-5-yl)methyl)-3-(2,2-difluorobenzo[d][1,3]dioxol-5-yl)pyrido[2,3-d]pyrimidine-2,4(3H,8H)-dione]
≥ 70%: all assays above
